Where two headings read alike, the source gives them in different places.

The nature of data set [1]: NOAEL exposure in rats vs human dose.
Data set [2] in a line: Total plasma Cmin at steady state, human dose. In kind it is in vivo.
The target of the next data set is G551D variant (Homo sapiens, UniProt P13569, G551D). Nature of the data set: Potentiator EC50 for the G551D CFTR variant. It counts as cell-based.
Data set [3] in a line: NOAEL exposure in dogs vs human dose.
Another data set concerns the target T1, F508del-CFTR (Homo sapiens, UniProt P13569, DEL508-508).
T1 construct: endogenous in cells; host or cells: CF-hBE (primary human bronchial epithelial cells from CF donors)
Nature of the data set: Ussing chamber electrophysiology, acute potentiation of F508del-CFTR current in corrected CF-hBE cells. In kind it is cell-based. The note with it: for Maximum efficacy (Emax), relative efficacy: normalized to response of 1 μM ivacaftor (=1.0), cells treated with the three correctors. As to the method: Methods: […] Electrophysiology assays were conducted in an Ussing chamber in which corrected cells were treated with ascending concentrations of […] (0.001-10 μM) or ivacaftor (0.0003-1.0 μM). […] FIG. 1 legend: Ussing assay dose-response curves for potentiation of F508del-CFTR current following acute addition of ivacaftor (0.0003-1.0 μM, black circles) and […] (0.001-10 μM, blue squares labeled FDL176). Cells were corrected with lumacaftor (left), tezacaftor (middle), or FDL169 (right), each at 3 μM. For each corrector treatment group, dose response data for ivacaftor and […] were normalized to the response following activation with 1 μM ivacaftor (with matched corrector). Error bars represent SEM. CF-hBE=cystic fibrosis primary human bronchial epithelial cells; CFTR=cystic fibrosis transmembrane conductance regulator; SEM=standard error of the mean.

The conditions of data set [4]: cystic fibrosis patients with comorbid pancreatic diseases (Carrion et al. 2018); cited from earlier work.

T1 sequence (P13569 with tags, fused parts or gaps DEL508-508): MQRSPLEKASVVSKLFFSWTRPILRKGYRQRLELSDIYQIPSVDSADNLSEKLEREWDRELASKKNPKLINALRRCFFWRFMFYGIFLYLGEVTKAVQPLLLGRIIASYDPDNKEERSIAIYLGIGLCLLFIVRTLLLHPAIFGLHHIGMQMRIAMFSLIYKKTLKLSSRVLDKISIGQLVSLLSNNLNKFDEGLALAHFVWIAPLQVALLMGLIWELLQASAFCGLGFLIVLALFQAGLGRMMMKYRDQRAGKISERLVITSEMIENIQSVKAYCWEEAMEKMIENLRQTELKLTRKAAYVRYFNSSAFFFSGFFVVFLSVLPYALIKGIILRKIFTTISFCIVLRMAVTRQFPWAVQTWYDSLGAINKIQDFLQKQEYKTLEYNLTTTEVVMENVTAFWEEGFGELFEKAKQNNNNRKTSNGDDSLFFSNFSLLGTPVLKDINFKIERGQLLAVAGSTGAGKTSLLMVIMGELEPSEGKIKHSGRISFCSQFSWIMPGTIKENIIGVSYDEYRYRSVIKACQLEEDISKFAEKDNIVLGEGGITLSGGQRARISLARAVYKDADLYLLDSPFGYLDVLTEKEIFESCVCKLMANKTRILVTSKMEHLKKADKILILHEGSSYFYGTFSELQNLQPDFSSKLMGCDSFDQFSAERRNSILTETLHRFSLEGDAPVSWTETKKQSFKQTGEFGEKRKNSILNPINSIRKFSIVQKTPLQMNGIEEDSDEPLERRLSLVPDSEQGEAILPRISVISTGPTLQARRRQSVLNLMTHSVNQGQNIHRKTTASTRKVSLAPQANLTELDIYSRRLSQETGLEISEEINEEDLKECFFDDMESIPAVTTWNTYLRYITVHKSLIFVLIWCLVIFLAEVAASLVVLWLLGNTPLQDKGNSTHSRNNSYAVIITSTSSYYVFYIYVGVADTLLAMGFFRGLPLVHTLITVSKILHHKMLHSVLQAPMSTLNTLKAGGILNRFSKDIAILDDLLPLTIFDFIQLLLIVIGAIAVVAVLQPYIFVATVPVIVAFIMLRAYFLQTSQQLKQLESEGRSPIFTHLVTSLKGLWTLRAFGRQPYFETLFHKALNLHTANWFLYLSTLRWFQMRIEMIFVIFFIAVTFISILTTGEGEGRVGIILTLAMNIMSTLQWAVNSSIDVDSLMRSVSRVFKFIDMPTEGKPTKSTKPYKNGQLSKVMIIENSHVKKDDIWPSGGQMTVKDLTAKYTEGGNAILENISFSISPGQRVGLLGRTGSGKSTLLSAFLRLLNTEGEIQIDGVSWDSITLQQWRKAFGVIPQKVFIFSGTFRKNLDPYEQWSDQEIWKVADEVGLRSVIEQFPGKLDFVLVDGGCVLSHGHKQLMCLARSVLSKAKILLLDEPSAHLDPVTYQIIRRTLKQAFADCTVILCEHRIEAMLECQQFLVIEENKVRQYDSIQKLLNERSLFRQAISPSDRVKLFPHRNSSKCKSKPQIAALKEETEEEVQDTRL
Sequence of G551D variant (P13569 whole entry G551D): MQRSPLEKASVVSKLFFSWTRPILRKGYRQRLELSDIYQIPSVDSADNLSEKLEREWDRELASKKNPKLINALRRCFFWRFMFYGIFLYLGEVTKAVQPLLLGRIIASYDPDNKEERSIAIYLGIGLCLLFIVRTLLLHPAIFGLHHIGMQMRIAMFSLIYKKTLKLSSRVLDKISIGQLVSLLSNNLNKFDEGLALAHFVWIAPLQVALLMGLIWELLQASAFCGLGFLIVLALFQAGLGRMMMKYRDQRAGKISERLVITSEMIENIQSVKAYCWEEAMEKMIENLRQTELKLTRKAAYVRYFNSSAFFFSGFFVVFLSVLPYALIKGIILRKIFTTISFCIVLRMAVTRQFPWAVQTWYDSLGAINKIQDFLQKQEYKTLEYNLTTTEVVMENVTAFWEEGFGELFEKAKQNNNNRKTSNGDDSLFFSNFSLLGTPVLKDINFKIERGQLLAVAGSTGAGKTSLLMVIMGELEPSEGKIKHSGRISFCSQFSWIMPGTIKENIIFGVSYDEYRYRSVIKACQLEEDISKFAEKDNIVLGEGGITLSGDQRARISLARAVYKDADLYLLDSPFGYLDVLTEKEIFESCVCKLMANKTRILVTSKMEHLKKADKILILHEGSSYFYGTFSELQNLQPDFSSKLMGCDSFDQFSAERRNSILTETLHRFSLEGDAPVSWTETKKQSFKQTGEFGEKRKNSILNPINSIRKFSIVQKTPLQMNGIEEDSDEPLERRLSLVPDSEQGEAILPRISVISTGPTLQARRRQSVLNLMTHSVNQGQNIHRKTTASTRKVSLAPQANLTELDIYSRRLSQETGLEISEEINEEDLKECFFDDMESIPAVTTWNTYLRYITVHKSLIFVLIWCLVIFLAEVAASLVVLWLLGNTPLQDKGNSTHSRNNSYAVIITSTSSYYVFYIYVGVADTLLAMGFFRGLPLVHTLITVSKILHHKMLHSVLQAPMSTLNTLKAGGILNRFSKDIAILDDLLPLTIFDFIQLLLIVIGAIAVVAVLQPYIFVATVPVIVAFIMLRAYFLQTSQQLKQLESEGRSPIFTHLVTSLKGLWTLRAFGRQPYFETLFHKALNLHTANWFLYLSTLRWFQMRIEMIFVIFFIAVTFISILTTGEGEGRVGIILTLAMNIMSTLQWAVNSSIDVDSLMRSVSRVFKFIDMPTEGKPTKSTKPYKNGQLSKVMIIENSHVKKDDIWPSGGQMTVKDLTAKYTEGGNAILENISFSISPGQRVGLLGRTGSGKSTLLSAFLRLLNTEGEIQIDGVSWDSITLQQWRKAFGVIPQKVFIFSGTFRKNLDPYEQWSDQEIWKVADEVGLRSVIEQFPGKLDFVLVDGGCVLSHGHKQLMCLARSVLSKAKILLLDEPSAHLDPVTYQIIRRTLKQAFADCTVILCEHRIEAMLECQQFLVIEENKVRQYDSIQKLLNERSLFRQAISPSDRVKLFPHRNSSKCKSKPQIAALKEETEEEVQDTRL

Take `Cl.O=S(=O)(c1ccccc1)c1ccc2nc(NCc3ccc(-c4ccccn4)cc3)nn2c1` [X0176, 6-(phenylsulfonyl)-N-(4-(pyridin-2-yl)benzyl)-[1,2,4]triazolo[1,5-a]pyridin-2-amine hydrochloride]: the “Safety margin of NOAEL exposure over a 50 mg human dose” value is 3.4 fold in data set [1] and 1.1 fold in data set [3]. The entries for the “Total plasma Cmin at steady state” value in data set [2] (30 mg dose) and in data set [2] (50 mg dose) were 2180 nM and 3170 nM, respectively. In addition, the concentration giving a half-maximal response (EC50) stood at 2600 nM at G551D variant; 204 ± 24.4 nM at F508del-CFTR (CF-hBE cells corrected with FDL169 3 μM, acute addition (<1 hour), read-out: EC50, potentiation of F508del-CFTR current); 133 ± 18.1 nM at F508del-CFTR (CF-hBE cells corrected with lumacaftor 3 μM, acute addition (<1 hour), read-out: EC50, potentiation of F508del-CFTR current); 202 ± 44.6 nM at F508del-CFTR (CF-hBE cells corrected with tezacaftor 3 μM, acute addition (<1 hour), read-out: EC50, potentiation of F508del-CFTR current). The “Maximum efficacy (Emax), relative efficacy” value on F508del-CFTR is on record as 1.0.
For `CC(C)(C)c1cc(C(C)(C)C)c(NC(=O)c2c[nH]c3ccccc3c2=O)cc1O` [ivacaftor, reference compound], the “Recurrence rate of pancreatitis” value in data set [4] is “decreased recurrence rate of pancreatitis”. Besides, the EC50 on F508del-CFTR (corrector treated CF-hBE cells (lumacaftor, tezacaftor, FDL169), acute addition, read-out: EC50 range, potentiation of F508del-CFTR current) lay in the range of 3.6 to 9.1 nM. Also, the “Maximum efficacy (Emax), relative efficacy” value at F508del-CFTR was found to be 1.0.

A word on the EC50: it is the concentration at which the effect is half-maximal.

Source of the values: US20230201172A1, “METHODS OF TREATING CFTR RELATED DISEASES AND DISORDERS” (ARIEL PRECISION MEDICINE, INC., priority 2020, published 2023).
